From ChEMBL document CHEMBL4483862, “Open-source discovery of chemical leads for next-generation chemoprotective antimalarials” (2018)

System: Plasmodium berghei
Test: Luciferase/luciferin-expressing antifolate-resistant parasites were used to infect a culture of HepG2 cells that were pre-incubated with compounds. Infected hepatocytes emit light due to the luciferase reaction. Assay results are presented as the percent inhibition of light emission compared to control. […]
Format: functional
Details: sporozoite; for IC90: read-out: LUCIFERASE INFECTION ASSAY - IC90
[1] = read-out: LUCIFERASE INFECTION ASSAY - IC50

Row | Structure (SMILES) | IC90 | IC50 [1] | further results
1 | Cc1ccc(-c2nc(NC(=O)c3ccn(C)c(=O)c3)sc2-c2ccc(C)cc2)cc1 | 5.86 µM | – | IC50 (HEPG2TOX_HILL_SLOPE 6.56, HEPG2TOX_R_SQUARED 0.678, PBLUC_HILL_SLOPE 73.6, 3.22, PBLUC_R_SQUARED 0.772, 0.348, read-out: LUCIFERASE INFECTION ASSAY - IC50): 3.76 µM
2 | C/C(=N\NC(=O)c1ccc(OCC(=O)N2C(C)CCCC2C)cc1)c1ccc2ccccc2c1O (centres undefined) | 3.9 µM | – | IC50 (HEPG2TOX_HILL_SLOPE 2.27, HEPG2TOX_R_SQUARED 0.93, PBLUC_HILL_SLOPE 2.78, PBLUC_R_SQUARED 0.436, read-out: LUCIFERASE INFECTION ASSAY - IC50): 1.77 µM
3 | CC(C)Cn1c(N)c(C(=O)COC(=O)c2c3c(nc4ccccc24)CCCCC3)c(=O)n(C)c1=O | 1.27 µM | – | IC50 (HEPG2TOX_HILL_SLOPE 9.18, HEPG2TOX_R_SQUARED 0.068, PBLUC_HILL_SLOPE 16.7, PBLUC_R_SQUARED 0.609, read-out: LUCIFERASE INFECTION ASSAY - IC50): 1.11 µM
4 | CCNC(=O)c1cccc(NC(=O)CCC(=O)c2cc(C)ccc2C)c1 | > 10 µM | > 10 µM | –
5 | CN(c1ccccc1)S(=O)(=O)c1ccc(NC(=O)c2cccs2)cc1 | 8.27 µM | – | IC50 (PBLUC_HILL_SLOPE 1.98, PBLUC_R_SQUARED 0.132, read-out: LUCIFERASE INFECTION ASSAY - IC50): 2.73 µM
6 | Cc1ccc(C(=O)Nc2nc3ccccn3c2C(=O)NC(C)C)cc1 | > 9.81 µM | – | IC50 (PBLUC_HILL_SLOPE 15.2, PBLUC_R_SQUARED 0.478, read-out: LUCIFERASE INFECTION ASSAY - IC50): 8.52 µM
7 | CCOC(=O)c1c[nH]c2cc(Cl)cc(Cl)c2c1=O | > 11.5 µM | > 11.5 µM | –
8 | Cc1nc2sccc2c(=O)n1NC(=O)c1ccc2ccccc2n1 | > 10 µM | > 10 µM | –
9 | CC(C)(C)NC(=S)N/N=C/c1ncc(C(F)(F)F)cc1Sc1ccc(Cl)cc1 | 4.33 µM | – | IC50 (FFLUC_HILL_SLOPE 15.8, FFLUC_R_SQUARED 0.683, HEPG2TOX_HILL_SLOPE 2.2, HEPG2TOX_R_SQUARED 0.982, PBLUC_HILL_SLOPE 3.41, PBLUC_R_SQUARED 0.827, read-out: LUCIFERASE INFECTION ASSAY - IC50): 2.27 µM
10 | CCCCCCCc1ccc(C(=O)Nc2ccc(F)c(Cl)c2)cc1 | > 9.49 µM | – | IC50 (FFLUC_HILL_SLOPE 16.3, FFLUC_R_SQUARED 0.0372, PBLUC_HILL_SLOPE 1.73, PBLUC_R_SQUARED 0.521, read-out: LUCIFERASE INFECTION ASSAY - IC50): 4.92 µM
11 | CCCc1cc(=O)nc(SCC(=O)NC(=O)c2ccc(C(C)(C)C)cc2)[nH]1 | > 10 µM | > 10 µM | –
12 | CC(C)NS(=O)(=O)c1ccc(NC(=S)NC(=O)C(c2ccccc2)c2ccccc2)cc1 | > 10 µM | – | IC50 (FFLUC_HILL_SLOPE 1.86, FFLUC_R_SQUARED 0.596, HEPG2TOX_HILL_SLOPE 15.1, HEPG2TOX_R_SQUARED 0.768, PBLUC_HILL_SLOPE 9.02, PBLUC_R_SQUARED 0.275, read-out: LUCIFERASE INFECTION ASSAY - IC50): 8.35 µM
13 | CCc1cc(=O)n2ncc(-c3ccc(Cl)cc3)c2[nH]1 | 3.53 µM | – | IC50 (HEPG2TOX_HILL_SLOPE 2.33, HEPG2TOX_R_SQUARED 0.563, PBLUC_HILL_SLOPE 7.25, PBLUC_R_SQUARED 0.422, read-out: LUCIFERASE INFECTION ASSAY - IC50): 2.61 µM
14 | Cc1cc(C(=O)NNC(=O)c2c(C)nc3ccccn23)c2nc3n(c2n1)CCCCC3 | 0.662 µM | – | IC50 (HEPG2TOX_HILL_SLOPE 1.28, HEPG2TOX_R_SQUARED 0.815, PBLUC_HILL_SLOPE 3.27, PBLUC_R_SQUARED 0.895, read-out: LUCIFERASE INFECTION ASSAY - IC50): 0.338 µM
15 | O=C(Nc1ccc2c(c1)OCO2)c1cnc(N2CCN(Cc3ccc(Cl)cc3)C2=O)o1 | > 10 µM | – | IC50 (PBLUC_HILL_SLOPE 1.65, PBLUC_R_SQUARED 0.722, read-out: LUCIFERASE INFECTION ASSAY - IC50): 3.79 µM
16 | Cc1ccc2c(c1)CCCN2C(=O)CCc1nc(O)c2ccccc2n1 | > 10 µM | – | IC50 (HEPG2TOX_HILL_SLOPE 1.38, HEPG2TOX_R_SQUARED 0.978, PBLUC_HILL_SLOPE 0.881, PBLUC_R_SQUARED 0.443, read-out: LUCIFERASE INFECTION ASSAY - IC50): 3.89 µM
17 | N#CC(C(=O)COC(=O)c1cn(-c2ccccc2)nc1-c1ccccc1)=C1Nc2ccccc2N1 | > 10 µM | > 10 µM | –
18 | O=C(c1cncn1-c1ccccc1)N1CC=C(c2ccccc2)CC1 | > 10 µM | – | IC50 (HEPG2TOX_HILL_SLOPE 2.04, HEPG2TOX_R_SQUARED 0.78, PBLUC_HILL_SLOPE 1.11, PBLUC_R_SQUARED 0.463, read-out: LUCIFERASE INFECTION ASSAY - IC50): 4.38 µM
19 | O=C(CSc1nnc(Cc2cccs2)n1C1CCCCC1)c1c[nH]c2ccccc12 | > 10 µM | > 10 µM | –
20 | O=c1[nH]nc(CSc2ccccn2)c2ccccc12 | > 12.3 µM | – | IC50 (PBLUC_HILL_SLOPE 1.43, PBLUC_R_SQUARED 0.267, read-out: LUCIFERASE INFECTION ASSAY - IC50): 10 µM
21 | Cc1onc(-c2c(Cl)cccc2Cl)c1CO/N=C(\C#N)c1c(Cl)cccc1Cl | > 7.25 µM | > 7.25 µM | –

Row | Structure (SMILES) | IC90 | IC50 [1] | further results
22 | Cc1cc(=O)n2nc(C(F)(F)F)n(CC(=O)Nc3ccc(Sc4ccc(C)c(C)c4)cc3)c2c1 | > 10 µM | > 10 µM | –
23 | Cc1ccc(C2NC(=S)NC3=C2C(=O)c2ccccc23)cc1 (centres undefined) | > 10.8 µM | > 10.8 µM | –
24 | O=c1c2c3c(sc2nc(SCc2nc4ccc(Cl)cc4n2CCO)n1CC1CCCO1)CCC3 (centres undefined) | > 10 µM | – | IC50 (FFLUC_HILL_SLOPE 13.3, FFLUC_R_SQUARED 0.41, read-out: LUCIFERASE INFECTION ASSAY - IC50): > 10 µM
25 | Cc1ccc2nc(NC(=O)c3ccc(F)c(F)c3)c(C(=O)NCC(C)C)n2c1 | > 8.54 µM | – | IC50 (PBLUC_HILL_SLOPE 0.472, PBLUC_R_SQUARED 0.144, read-out: LUCIFERASE INFECTION ASSAY - IC50): > 8.54 µM
26 | O=C(c1ccco1)N(Cc1nccs1)c1ccc(-c2ccccc2)cc1 | > 9.16 µM | > 9.16 µM | –
27 | COc1ccccc1CNC(=O)CN1CCN(c2cc(C)nc(C(C)C)n2)CC1 | > 10 µM | > 10 µM | –
28 | Clc1ccc(-c2cnc3cnc(-c4ccncc4)cn23)cc1 | 4.84 µM | – | IC50 (PBLUC_HILL_SLOPE 2.25, PBLUC_R_SQUARED 0.741, read-out: LUCIFERASE INFECTION ASSAY - IC50): 1.82 µM
29 | Oc1cc2[nH]c3ccccc3c2cc1CN1CCN(Cc2ccccc2)CC1 | > 10 µM | – | IC50 (PBLUC_HILL_SLOPE 3.66, PBLUC_R_SQUARED 0.154, read-out: LUCIFERASE INFECTION ASSAY - IC50): 6.03 µM
30 | COc1ccc(-c2cc3c(cn2)nc(NCc2cccc(C)c2)n3C)cc1 | > 10 µM | – | IC50 (PBLUC_HILL_SLOPE 9.11, PBLUC_R_SQUARED 0.402, read-out: LUCIFERASE INFECTION ASSAY - IC50): 9.46 µM
31 | N#Cc1sc(SCc2ccccc2)c2c1CC(c1ccccc1)CC2=O (centres undefined) | > 8.79 µM | – | IC50 (HEPG2TOX_HILL_SLOPE 1.94, HEPG2TOX_R_SQUARED 0.866, PBLUC_HILL_SLOPE 1.6, PBLUC_R_SQUARED 0.401, read-out: LUCIFERASE INFECTION ASSAY - IC50): 7.45 µM
32 | CSc1ccccc1NC(=O)CN(C)c1nc(CSc2ccccc2)nc2sc3c(c12)CCC3 | > 10 µM | > 10 µM | –
33 | Cc1cc(C(=O)CSc2nnc(C3CC3)o2)c(C)n1-c1ccc2c(c1)CCC2 | > 10 µM | – | IC50 (HEPG2TOX_HILL_SLOPE 7.74, HEPG2TOX_R_SQUARED 0.677, read-out: LUCIFERASE INFECTION ASSAY - IC50): > 10 µM
34 | Cc1ccc(NC(=O)C(Sc2nnc3n(-c4ccccc4)c(=O)c4ccccc4n23)c2ccccc2)c([N+](=O)[O-])c1 (centres undefined) | > 10 µM | – | IC50 (PBLUC_HILL_SLOPE 11.5, 36.4, PBLUC_R_SQUARED 0.176, 0.319, read-out: LUCIFERASE INFECTION ASSAY - IC50): 9.56 µM
35 | Cc1ccc(C(C#N)c2ccc(NN)nn2)cc1 (centres undefined) | > 13.8 µM | – | IC50 (FFLUC_HILL_SLOPE 3.94, FFLUC_R_SQUARED 0.836, read-out: LUCIFERASE INFECTION ASSAY - IC50): > 13.8 µM
36 | FC(F)(F)c1ccccc1N/N=C/c1ccc(OCc2ccccc2)c(OCc2ccccc2)c1 | > 10 µM | – | IC50 (FFLUC_HILL_SLOPE 10.4, FFLUC_R_SQUARED 0.371, read-out: LUCIFERASE INFECTION ASSAY - IC50): > 10 µM
37 | c1ccc(Sc2ncnc3sccc23)nc1 | 6.79 µM | – | IC50 (PBLUC_HILL_SLOPE 117, PBLUC_R_SQUARED 0.0329, read-out: LUCIFERASE INFECTION ASSAY - IC50): 6.66 µM
38 | O=C(NC1CCOc2ccccc21)c1ccccc1Oc1ccccc1 (centres undefined) | > 10 µM | – | IC50 (HEPG2TOX_HILL_SLOPE 5.41, HEPG2TOX_R_SQUARED 0.0143, read-out: LUCIFERASE INFECTION ASSAY - IC50): > 10 µM
39 | Cc1c(C(=O)Nc2ncc(Cc3ccccc3)s2)[nH]c2c1C(=O)CC(C)(C)C2 | > 10 µM | > 10 µM | –
40 | C/N=c1\scc(-c2ccco2)n1/N=C/c1sccc1C | 1.19 µM | – | IC50 (FFLUC_HILL_SLOPE 0.471, FFLUC_R_SQUARED 0.601, PBLUC_HILL_SLOPE 1.29, PBLUC_R_SQUARED 0.771, read-out: LUCIFERASE INFECTION ASSAY - IC50): 0.216 µM
41 | Fc1ccc(-c2cc3ncnc(NC4CC4)c3s2)cc1 | > 10 µM | > 10 µM | –
42 | Clc1ccc2c(NCc3coc(-c4cccs4)n3)ncnc2c1 | 6.02 µM | – | IC50 (HEPG2TOX_HILL_SLOPE 0.478, HEPG2TOX_R_SQUARED 0.927, PBLUC_HILL_SLOPE 2.76, PBLUC_R_SQUARED 0.49, read-out: LUCIFERASE INFECTION ASSAY - IC50): 2.71 µM
